{"source": "a compilation of properties of binary mixtures (doi:10.1039/b315616h)", "test": "xn = mol fraction of the nth substance listed", "conditions": "101.3 kPa, x2 = 0.865", "data": [{"smiles": "CCCCCC[n+]1ccn(C)c1.F[B-](F)(F)F", "note": "+ CCCCCO", "values": [{"measurement": "viscosity", "setting": "314.94 K", "result": 5.47, "unit": "mPa·s"}, {"measurement": "viscosity", "setting": "315.04 K", "result": 5.22, "unit": "mPa·s"}, {"measurement": "viscosity", "setting": "315.1 K", "result": 5.14, "unit": "mPa·s"}, {"measurement": "viscosity", "setting": "315.15 K", "result": 5.09, "unit": "mPa·s"}, {"measurement": "viscosity", "setting": "315.2 K", "result": 5.04, "unit": "mPa·s"}, {"measurement": "viscosity", "setting": "315.24 K", "result": 5, "unit": "mPa·s"}, {"measurement": "viscosity", "setting": "315.3 K", "result": 4.96, "unit": "mPa·s"}, {"measurement": "viscosity", "setting": "315.44 K", "result": 4.87, "unit": "mPa·s"}, {"measurement": "viscosity", "setting": "315.54 K", "result": 4.83, "unit": "mPa·s"}, {"measurement": "viscosity", "setting": "315.58 K", "result": 4.8, "unit": "mPa·s"}, {"measurement": "viscosity", "setting": "315.71 K", "result": 4.76, "unit": "mPa·s"}, {"measurement": "viscosity", "setting": "315.75 K", "result": 4.74, "unit": "mPa·s"}, {"measurement": "viscosity", "setting": "315.88 K", "result": 4.7, "unit": "mPa·s"}, {"measurement": "viscosity", "setting": "315.91 K", "result": 4.69, "unit": "mPa·s"}, {"measurement": "viscosity", "setting": "315.94 K", "result": 4.68, "unit": "mPa·s"}, {"measurement": "viscosity", "setting": "315.98 K", "result": 4.67, "unit": "mPa·s"}, {"measurement": "viscosity", "setting": "316.07 K", "result": 4.64, "unit": "mPa·s"}, {"measurement": "viscosity", "setting": "316.22 K", "result": 4.6, "unit": "mPa·s"}, {"measurement": "viscosity", "setting": "316.42 K", "result": 4.54, "unit": "mPa·s"}, {"measurement": "viscosity", "setting": "316.73 K", "result": 4.46, "unit": "mPa·s"}, {"measurement": "viscosity", "setting": "317.23 K", "result": 4.35, "unit": "mPa·s"}, {"measurement": "viscosity", "setting": "319.34 K", "result": 3.98, "unit": "mPa·s"}, {"measurement": "viscosity", "setting": "321.14 K", "result": 3.74, "unit": "mPa·s"}, {"measurement": "viscosity", "setting": "323.16 K", "result": 3.51, "unit": "mPa·s"}, {"measurement": "viscosity", "setting": "325.69 K", "result": 3.262, "unit": "mPa·s"}, {"measurement": "viscosity", "setting": "328.15 K", "result": 3.047, "unit": "mPa·s"}]}]}
